Laboratory results taken from US20250206732A1, “COMPOUNDS AND METHODS FOR THE TARGETED DEGRADATION OF KRAS” (Arvinas Operations, Inc., priority 2022, published 2025).

Target: T1, AsPC-1 HiBiT-KRASG12D (Homo sapiens, UniProt P01116, G12D)
T1 construct: insert the HiBiT tag onto the N-terminus of one or more of the endogenous KRAS alleles; endogenous in cells; host or cells: AsPC-1 (ATCC CRL-1682), CRISPR-Cas9 knock-in clone, one tagged allele
Test: HiBiT degradation assay (G12D), AsPC-1 HiBiT-KRASG12D cells
Assay type: cell-based
Conditions: 24 hours treatment; for Dmax: ASPC1, AsPC-1 HiBiT-KRASG12D cells, maximum degradation observed; for DC50: AsPC-1 HiBiT-KRASG12D cells, HiBiT luminescence
In short: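 HiBiT-KRAS abundance was read as Nano-Glo HiBiT lytic luminescence (45 min, room temperature) after a PBS wash. Before that, a 4 h alamar blue fluorescence read, normalized to DMSO, monitored viability. Treatment lasted 24 hours at 37 °C, in triplicate, using AsPC-1 cells with endogenous N-terminally HiBiT-tagged KRAS G12D.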

T1 sequence (P01116 1-188 isoform P01116-2 G12D): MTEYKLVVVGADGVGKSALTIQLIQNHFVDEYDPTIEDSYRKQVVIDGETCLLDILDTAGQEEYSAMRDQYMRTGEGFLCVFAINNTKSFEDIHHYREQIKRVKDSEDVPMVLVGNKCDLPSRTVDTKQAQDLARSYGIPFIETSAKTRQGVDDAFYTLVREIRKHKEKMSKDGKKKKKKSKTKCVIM

Structure (SMILES) | Dmax [%] | DC50 [nM]
CCc1cccc2cc(O)cc(-c3ncc4c(N5CC6CCC(C5)N6)nc(OC[C@]56CCCN5[C@H](COC(=O)N5CCN(c7cc([C@@H](C(=O)N8C[C@H](O)C[C@H]8C(=O)N[C@@H](C)c8ccc(-c9scnc9C)cc8)C(C)C)on7)[C@@H](C)C5)CC6)nc4c3F)c12 [Compound 124, [(3S,7aR)-7a-{[(4-{3,8-diazabicyclo[3.2.1]octan-3-yl}-7-(8-ethyl-3-hydroxynaphthalen-1-yl)-8-fluoropyrido[4,3-d]pyrimidin-2-yl)oxy]methyl}-hexahydro-1H-pyrrolizin-3-yl]methyl (3S)-4-{5-[(2S)-1-[(2S,4R)-4-hydroxy-2-{[(1S)-1-[4-(4-methyl-1,3-thiazol-5-yl)phenyl]ethyl]carbamoyl}pyrrolidin-1-yl]-3-methyl-1-oxobutan-2-yl]-1,2-oxazol-3-yl}-3-methylpiperazine-1-carboxylate] | < 20 | < 600
CCc1cccc2cc(O)cc(-c3ncc4c(N5CC6CCC(C5)N6)nc(OC[C@]56CCCN5[C@H](COC(=O)N5CCN(c7cc([C@@H](C(=O)N8C[C@H](O)C[C@H]8C(=O)N[C@@H](C)c8ccc(-c9scnc9C)cc8)C(C)C)on7)C[C@H]5C)CC6)nc4c3F)c12 [Compound 125, [(3S,7aR)-7a-{[(4-{3,8-diazabicyclo[3.2.1]octan-3-yl}-7-(8-ethyl-3-hydroxynaphthalen-1-yl)-8-fluoropyrido[4,3-d]pyrimidin-2-yl)oxy]methyl}-hexahydro-1H-pyrrolizin-3-yl]methyl (2R)-4-{5-[(2S)-1-[(2S,4R)-4-hydroxy-2-{[(1S)-1-[4-(4-methyl-1,3-thiazol-5-yl)phenyl]ethyl]carbamoyl}pyrrolidin-1-yl]-3-methyl-1-oxobutan-2-yl]-1,2-oxazol-3-yl}-2-methylpiperazine-1-carboxylate] | 20 to 60 | 600 to 1000
CCc1cccc2cc(O)cc(-c3ncc4c(N5CC6CCC(C5)N6)nc(OC[C@@]56CCCN5[C@H](COC(=O)N5CC(Oc7cc([C@H](C(=O)N8C[C@H](O)C[C@H]8C(=O)N[C@@H](C)c8ccc(-c9scnc9C)cc8)C(C)C)on7)C5)CC6)nc4c3F)c12 [Compound 126, [(3S,7aS)-7a-{[(4-{3,8-diazabicyclo[3.2.1]octan-3-yl}-7-(8-ethyl-3-hydroxynaphthalen-1-yl)-8-fluoropyrido[4,3-d]pyrimidin-2-yl)oxy]methyl}-hexahydro-1H-pyrrolizin-3-yl]methyl 3-({5-[(2R)-1-[(2S,4R)-4-hydroxy-2-{[(1S)-1-[4-(4-methyl-1,3-thiazol-5-yl)phenyl]ethyl]carbamoyl}pyrrolidin-1-yl]-3-methyl-1-oxobutan-2-yl]-1,2-oxazol-3-yl}oxy)azetidine-1-carboxylate] | 80 to 100 | < 600
CCc1cccc2cc(O)cc(-c3ncc4c(N5CC6CCC(C5)N6)nc(OC[C@@]56CCCN5[C@H](COC(=O)N5CC(Oc7cc([C@@H](C(=O)N8C[C@H](O)C[C@H]8C(=O)N[C@@H](C)c8ccc(-c9scnc9C)cc8)C(C)C)on7)C5)CC6)nc4c3F)c12 [Compound 127, [(3S,7aS)-7a-{[(4-{3,8-diazabicyclo[3.2.1]octan-3-yl}-7-(8-ethyl-3-hydroxynaphthalen-1-yl)-8-fluoropyrido[4,3-d]pyrimidin-2-yl)oxy]methyl}-hexahydro-1H-pyrrolizin-3-yl]methyl 3-({5-[(2S)-1-[(2S,4R)-4-hydroxy-2-{[(1S)-1-[4-(4-methyl-1,3-thiazol-5-yl)phenyl]ethyl]carbamoyl}pyrrolidin-1-yl]-3-methyl-1-oxobutan-2-yl]-1,2-oxazol-3-yl}oxy)azetidine-1-carboxylate] | < 20 | 600 to 1000
CCc1cccc2cc(O)cc(-c3ncc4c(N5CC6CCC(C5)N6)nc(OC[C@]56CCCN5[C@H](COC(=O)N5CC(Oc7cc([C@H](C(=O)N8C[C@H](O)C[C@H]8C(=O)N[C@@H](C)c8ccc(-c9scnc9C)cc8)C(C)C)on7)C5)CC6)nc4c3F)c12 [Compound 128, [(3S,7aR)-7a-{[(4-{3,8-diazabicyclo[3.2.1]octan-3-yl}-7-(8-ethyl-3-hydroxynaphthalen-1-yl)-8-fluoropyrido[4,3-d]pyrimidin-2-yl)oxy]methyl}-hexahydro-1H-pyrrolizin-3-yl]methyl 3-({5-[(2R)-1-[(2S,4R)-4-hydroxy-2-{[(1S)-1-[4-(4-methyl-1,3-thiazol-5-yl)phenyl]ethyl]carbamoyl}pyrrolidin-1-yl]-3-methyl-1-oxobutan-2-yl]-1,2-oxazol-3-yl}oxy)azetidine-1-carboxylate] | 80 to 100 | < 600
CCc1cccc2cc(O)cc(-c3ncc4c(N5CC6CCC(C5)N6)nc(OC[C@]56CCCN5[C@H](COC(=O)N5CC(Oc7cc([C@@H](C(=O)N8C[C@H](O)C[C@H]8C(=O)N[C@@H](C)c8ccc(-c9scnc9C)cc8)C(C)C)on7)C5)CC6)nc4c3F)c12 [Compound 129, [(3S,7aR)-7a-{[(4-{3,8-diazabicyclo[3.2.1]octan-3-yl}-7-(8-ethyl-3-hydroxynaphthalen-1-yl)-8-fluoropyrido[4,3-d]pyrimidin-2-yl)oxy]methyl}-hexahydro-1H-pyrrolizin-3-yl]methyl 3-({5-[(2S)-1-[(2S,4R)-4-hydroxy-2-{[(1S)-1-[4-(4-methyl-1,3-thiazol-5-yl)phenyl]ethyl]carbamoyl}pyrrolidin-1-yl]-3-methyl-1-oxobutan-2-yl]-1,2-oxazol-3-yl}oxy)azetidine-1-carboxylate] | 60 to 80 | < 600
CCc1cccc2cc(O)cc(-c3ncc4c(N5CC6CCC(C5)N6)nc(OC[C@]56CCCN5[C@H](COC(=O)N5CCN(c7cc([C@H](C(=O)N8C[C@H](O)C[C@H]8C(=O)N[C@@H](C)c8ccc(-c9scnc9C)cc8)C(C)C)on7)[C@H](C)C5)CC6)nc4c3F)c12 [Compound 130, [(3S,7aR)-7a-{[(4-{3,8-diazabicyclo[3.2.1]octan-3-yl}-7-(8-ethyl-3-hydroxynaphthalen-1-yl)-8-fluoropyrido[4,3-d]pyrimidin-2-yl)oxy]methyl}-hexahydro-1H-pyrrolizin-3-yl]methyl (3R)-4-{5-[(2R)-1-[(2S,4R)-4-hydroxy-2-{[(1S)-1-[4-(4-methyl-1,3-thiazol-5-yl)phenyl]ethyl]carbamoyl}pyrrolidin-1-yl]-3-methyl-1-oxobutan-2-yl]-1,2-oxazol-3-yl}-3-methylpiperazine-1-carboxylate] | 80 to 100 | < 600
CCc1cccc2cc(O)cc(-c3ncc4c(N5CC6CCC(C5)N6)nc(OC[C@]56CCCN5[C@H](COC(=O)N5CCN(c7cc([C@@H](C(=O)N8C[C@H](O)C[C@H]8C(=O)N[C@@H](C)c8ccc(-c9scnc9C)cc8)C(C)C)on7)[C@H](C)C5)CC6)nc4c3F)c12 [Compound 131, [(3S,7aR)-7a-{[(4-{3,8-diazabicyclo[3.2.1]octan-3-yl}-7-(8-ethyl-3-hydroxynaphthalen-1-yl)-8-fluoropyrido[4,3-d]pyrimidin-2-yl)oxy]methyl}-hexahydro-1H-pyrrolizin-3-yl]methyl (3R)-4-{5-[(2S)-1-[(2S,4R)-4-hydroxy-2-{[(1S)-1-[4-(4-methyl-1,3-thiazol-5-yl)phenyl]ethyl]carbamoyl}pyrrolidin-1-yl]-3-methyl-1-oxobutan-2-yl]-1,2-oxazol-3-yl}-3-methylpiperazine-1-carboxylate] | < 20 | < 600
CCc1cccc2cc(O)cc(-c3ncc4c(N5CC6CCC(C5)N6)nc(OC[C@]56CCCN5[C@H](COC(=O)N5CCN(c7cc([C@H](C(=O)N8C[C@H](O)C[C@H]8C(=O)N[C@@H](C)c8ccc(-c9scnc9C)cc8)C(C)C)on7)C[C@@H]5C)CC6)nc4c3F)c12 [Compound 132, [(3S,7aR)-7a-{[(4-{3,8-diazabicyclo[3.2.1]octan-3-yl}-7-(8-ethyl-3-hydroxynaphthalen-1-yl)-8-fluoropyrido[4,3-d]pyrimidin-2-yl)oxy]methyl}-hexahydro-1H-pyrrolizin-3-yl]methyl (2S)-4-{5-[(2R)-1-[(2S,4R)-4-hydroxy-2-{[(1S)-1-[4-(4-methyl-1,3-thiazol-5-yl)phenyl]ethyl]carbamoyl}pyrrolidin-1-yl]-3-methyl-1-oxobutan-2-yl]-1,2-oxazol-3-yl}-2-methylpiperazine-1-carboxylate] | 80 to 100 | < 600
CCc1cccc2cc(O)cc(-c3ncc4c(N5CC6CCC(C5)N6)nc(OC[C@]56CCCN5[C@H](COC(=O)N5CCN(c7cc([C@@H](C(=O)N8C[C@H](O)C[C@H]8C(=O)N[C@@H](C)c8ccc(-c9scnc9C)cc8)C(C)C)on7)C[C@@H]5C)CC6)nc4c3F)c12 [Compound 133, [(3S,7aR)-7a-{[(4-{3,8-diazabicyclo[3.2.1]octan-3-yl}-7-(8-ethyl-3-hydroxynaphthalen-1-yl)-8-fluoropyrido[4,3-d]pyrimidin-2-yl)oxy]methyl}-hexahydro-1H-pyrrolizin-3-yl]methyl (2S)-4-{5-[(2S)-1-[(2S,4R)-4-hydroxy-2-{[(1S)-1-[4-(4-methyl-1,3-thiazol-5-yl)phenyl]ethyl]carbamoyl}pyrrolidin-1-yl]-3-methyl-1-oxobutan-2-yl]-1,2-oxazol-3-yl}-2-methylpiperazine-1-carboxylate] | < 20 | < 600
